The source of these data is patent US20080145465A1, “Sesquiterpene lactone extract from artemisia leucodes for reducing inflammation and down-regulating pro-inflammatory gene expression” (priority 2006, published 2008).

Entries after “also recorded” stand apart in the source; their conditions may differ.

For assay [1], the system named is nitric oxide (NO) production from RAW macrophages. Briefly: Griess assay for NO production by LPS-stimulated RAW macrophages. It counts as cell-based, murine. The settings on record: LPS 1 μg/mL, 24 hours, n = 8, % of control. In general terms: Nitrite, measured by Griess reagent, commonly stands in for NO production.
Another assay relates to iNOS. Briefly: Quantitative real-time RT-PCR: iNOS gene expression in LPS-elicited RAW 264.7 macrophages. It counts as cell-based, murine. The note with it: for iNOS gene expression (LPS control = 100; values less than 100 represent inhibition): Table 4 experiment. Here is the method:
RAW 264.7 murine monocyte/macrophages (ATCC TIB-71) were maintained in Dulbecco's Modified Eagle Medium (D-MEM, Invitrogen Corp., Carlsbad, Calif.) supplemented with 10% fetal bovine serum (FBS, Invitrogen Corp., Carlsbad, Calif.) and 1% streptomycin and were kept in a humidified 37° C. incubator with 5% CO2. Cells were subcultured by scraping when plates reached 90% confluency with a 1:5 ratio.
Murine RAW macrophages 264.7 were plated at a density of 0.4×10^6 cells per well in 24-well plates 12 hours prior to treatment. A stock solution of AL-1 was created by completely dissolving the dry extract as in Example 1 in 95% ethanol. Two hours before elicitation with lipopolysaccharide (LPS, 1 μg/ml, Sigma, St. Louis, Mo.) the cells were treated with various concentrations of AL-1 (25-200 μg/ml) or vehicle control, maintaining a final concentration of 0.5% ethanol for all treatments. After six hours of treatment, RNA was extracted from cells using TRIzol® reagent (Invitrogen Corp., Carlsbad, Calif.) according to the manufacturer instructions. RNAs were quantified spectrophotometrically at 260 nm and stored at −80° C. until real-time PCR could be performed.
RNA was purified by treating with DnaseI (Invitrogen Corp., Carlsbad, Calif.) before performing reverse transcription with Stratascript Reverse Transcriptase, an RNA dependent DNA polymerase (Stratagene, La Jolla, Calif.) according to the manufacturer instructions. The cDNAs obtained were then amplified by real-time PCR. Expression of COX-2, iNOS, IL1β and β-actin gene expression levels was quantified using a Stratagene Mx 3000P™ Real-Time PCR System (Stratagene, La Jolla, Calif.). Primers for each gene were designed using Primer Express® version 2.0 software (Applied Biosystems, Foster City, Calif.; Table 2) (Giulietti et al., 2001; Overbergh et al., 2003).
Real-time PCR analyses were carried out using a Brilliant® SYBR® Green PCR master mix kit (Stratagene, La Jolla, Calif.) according to kit instructions. Samples were amplified using the following program: two minutes incubation at 50° C.; initial denaturation and polymerase activation at 95° C. for ten minutes; 40 PCR cycles consisting of 15 seconds at 95° C. and 60 seconds at 60° C. each. The RNA expression of the target genes were analyzed by ΔΔCT methods (Winer et al., 1999) using β-Actin gene as normalizer. The ΔΔCT values obtained from these analyses directly reflect the relative mRNA quantities for the marker gene in response to specific treatments. Lower ΔΔCT values indicate greater anti-inflammatory activity. The changes in gene expression as reflected by ΔΔCT values can also be expressed as percentage genetic inhibition [(1−ΔΔCT)×100] indicating anti-inflammatory properties of the test compounds. Amplification of specific transcripts was further confirmed by obtaining melting curve profiles. All samples were run in duplicate; four independent analyses were performed.
(In qPCR the cycle at which signal appears reflects the starting amount.)

Consider `CC1=CC(=O)C2=C(C)CC[C@@H]3[C@H](OC(=O)[C@H]3C)[C@@H]12` [leukomisin], for which the “NO production (relative to control), mean ± SE” value in assay [1] (2 μg/ml) stood at 100 ± 2%; in assay [1] (4 μg/ml) it was 98 ± 1%. Also, the “iNOS gene expression (LPS control = 100; values less than 100 represent inhibition)” value is 127 with iNOS (25 μg), 151 in the assay on iNOS (50 μg) and 126 in the assay on iNOS (75 μg). Moreover, the “effect on iNOS gene expression (in words)” value in the assay on iNOS (LPS-elicited RAW macrophages) is “no affect on gene expression; also recorded: no activity”.

Consider `CC1=CC(=O)C2=C(C)C[C@H](O)[C@@H]3[C@H](OC(=O)[C@H]3C)[C@@H]12` (single isomer, unassigned) [austricin], for which the “NO production (relative to control), mean ± SE” value in assay [1] (2 μg/ml) and in assay [1] (4 μg/ml) was 100 ± 1% each time. Also, the “iNOS gene expression (LPS control = 100; values less than 100 represent inhibition)” value in the assay on iNOS (25 μg) came to 102; in the assay with iNOS (50 μg) it was 108; in the assay on iNOS (75 μg), 113.
